Measured values: ChEMBL document CHEMBL1909046, “DrugMatrix in vitro pharmacology data”

Columns and labels:
[1] = target: Beta-2 adrenergic receptor (Homo sapiens, UniProt P07550); test: DRUGMATRIX: Adrenergic beta2 radioligand binding (ligand: [3H] CGP-12177); format: cell membranes, Membrane; conditions: cho; Not Active = under 50% inhibition at 10 µM
[2] = target: T1, 5-hydroxytryptamine receptor 2C (Homo sapiens, UniProt P28335); test: DRUGMATRIX: Serotonin (5-Hydroxytryptamine) 5-HT2C radioligand binding (ligand: [3H] Mesulergine); format: cell membranes, CHO-K1, Membrane; conditions: Not Active = under 50% inhibition at 10 µM; for Ki: read-out: Ki
T1 sequence (P28335 whole entry): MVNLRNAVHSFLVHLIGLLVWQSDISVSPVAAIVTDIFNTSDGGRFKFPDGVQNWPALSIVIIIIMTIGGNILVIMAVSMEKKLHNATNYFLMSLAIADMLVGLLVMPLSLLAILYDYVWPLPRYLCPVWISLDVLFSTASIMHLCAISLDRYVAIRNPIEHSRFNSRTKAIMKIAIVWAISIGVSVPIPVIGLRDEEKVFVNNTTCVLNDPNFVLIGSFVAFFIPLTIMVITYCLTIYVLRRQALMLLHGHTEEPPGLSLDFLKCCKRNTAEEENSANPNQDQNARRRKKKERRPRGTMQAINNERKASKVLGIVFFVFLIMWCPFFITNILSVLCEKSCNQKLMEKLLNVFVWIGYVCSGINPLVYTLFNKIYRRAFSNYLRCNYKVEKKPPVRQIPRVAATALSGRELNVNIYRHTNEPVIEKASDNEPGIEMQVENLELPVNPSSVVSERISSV

Substance-K receptor = target: T2, Substance-K receptor (Homo sapiens, UniProt P21452); format: cell membranes, CHO, Membrane; conditions: for Ki: read-out: Ki; on all read-outs here: in other assays of this panel Not Active means under 50% inhibition at 10 µM
T2 sequence (P21452 whole entry): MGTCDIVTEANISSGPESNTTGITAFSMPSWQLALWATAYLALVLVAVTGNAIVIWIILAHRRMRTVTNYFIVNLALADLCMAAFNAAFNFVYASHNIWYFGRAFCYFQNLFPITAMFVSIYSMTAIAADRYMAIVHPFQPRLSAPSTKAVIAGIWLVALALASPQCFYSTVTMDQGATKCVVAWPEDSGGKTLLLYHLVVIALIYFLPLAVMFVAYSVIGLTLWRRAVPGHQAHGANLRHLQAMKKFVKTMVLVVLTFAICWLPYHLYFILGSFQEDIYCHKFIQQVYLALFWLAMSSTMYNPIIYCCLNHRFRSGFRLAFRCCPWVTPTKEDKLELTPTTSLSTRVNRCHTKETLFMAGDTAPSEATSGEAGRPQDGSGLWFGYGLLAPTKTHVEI

Melanocortin receptor 5 = Melanocortin receptor 5 (Homo sapiens, UniProt P33032); format: cell membranes, HEK293, Membrane; conditions: hek293; further: in other assays of this panel Not Active means under 50% inhibition at 10 µM
Sequence of Melanocortin receptor 5 (P33032 whole entry): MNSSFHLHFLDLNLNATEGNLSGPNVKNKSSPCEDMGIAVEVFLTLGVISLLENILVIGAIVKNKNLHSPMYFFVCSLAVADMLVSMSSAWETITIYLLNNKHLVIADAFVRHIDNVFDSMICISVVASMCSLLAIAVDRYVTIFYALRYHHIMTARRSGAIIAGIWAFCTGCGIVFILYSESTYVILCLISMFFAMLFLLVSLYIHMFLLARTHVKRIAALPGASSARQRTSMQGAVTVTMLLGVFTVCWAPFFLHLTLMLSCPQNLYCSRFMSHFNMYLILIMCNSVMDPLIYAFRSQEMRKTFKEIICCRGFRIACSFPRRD

Interstitial collagenase = target: T3, Interstitial collagenase (Homo sapiens, UniProt P03956); format: tissue-based, Rheumatoid synovial fibroblasts;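 further: MMP-1 enzyme inhibition assay using a peptide substrate; in other assays of this panel Not Active means under 50% inhibition at 10 µM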
T3 sequence (P03956 whole entry): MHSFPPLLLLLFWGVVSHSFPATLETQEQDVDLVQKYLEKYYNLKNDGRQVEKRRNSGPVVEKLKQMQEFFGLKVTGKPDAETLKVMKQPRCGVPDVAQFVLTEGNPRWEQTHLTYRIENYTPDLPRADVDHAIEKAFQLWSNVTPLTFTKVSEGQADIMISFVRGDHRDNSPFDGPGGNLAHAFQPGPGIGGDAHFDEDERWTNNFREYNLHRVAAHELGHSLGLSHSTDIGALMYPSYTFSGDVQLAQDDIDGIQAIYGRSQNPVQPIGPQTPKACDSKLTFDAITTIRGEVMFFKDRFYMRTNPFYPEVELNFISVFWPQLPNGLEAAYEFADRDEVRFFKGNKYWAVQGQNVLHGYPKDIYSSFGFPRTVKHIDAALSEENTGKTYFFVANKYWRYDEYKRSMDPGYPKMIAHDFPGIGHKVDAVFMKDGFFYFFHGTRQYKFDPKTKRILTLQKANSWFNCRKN

Cytochrome P450 1A2 = target: T4, Cytochrome P450 1A2 (Homo sapiens, UniProt P05177); conditions: bti-tn-5b1-4; further: in other assays of this panel Not Active means under 50% inhibition at 10 µM
T4 sequence (P05177 whole entry): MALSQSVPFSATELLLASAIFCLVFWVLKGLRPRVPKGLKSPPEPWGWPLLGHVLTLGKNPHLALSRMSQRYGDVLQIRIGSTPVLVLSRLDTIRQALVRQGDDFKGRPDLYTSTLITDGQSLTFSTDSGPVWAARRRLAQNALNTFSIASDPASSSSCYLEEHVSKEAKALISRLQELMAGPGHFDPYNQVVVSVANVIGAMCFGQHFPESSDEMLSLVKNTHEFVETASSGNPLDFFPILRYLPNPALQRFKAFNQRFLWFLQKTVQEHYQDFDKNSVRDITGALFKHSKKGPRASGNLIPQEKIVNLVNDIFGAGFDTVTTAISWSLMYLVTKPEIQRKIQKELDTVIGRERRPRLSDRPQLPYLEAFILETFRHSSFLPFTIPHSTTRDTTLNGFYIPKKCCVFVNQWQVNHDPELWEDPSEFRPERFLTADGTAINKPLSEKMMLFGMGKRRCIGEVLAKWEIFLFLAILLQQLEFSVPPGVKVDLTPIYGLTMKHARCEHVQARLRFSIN

Sequence of Beta-2 adrenergic receptor (P07550 whole entry): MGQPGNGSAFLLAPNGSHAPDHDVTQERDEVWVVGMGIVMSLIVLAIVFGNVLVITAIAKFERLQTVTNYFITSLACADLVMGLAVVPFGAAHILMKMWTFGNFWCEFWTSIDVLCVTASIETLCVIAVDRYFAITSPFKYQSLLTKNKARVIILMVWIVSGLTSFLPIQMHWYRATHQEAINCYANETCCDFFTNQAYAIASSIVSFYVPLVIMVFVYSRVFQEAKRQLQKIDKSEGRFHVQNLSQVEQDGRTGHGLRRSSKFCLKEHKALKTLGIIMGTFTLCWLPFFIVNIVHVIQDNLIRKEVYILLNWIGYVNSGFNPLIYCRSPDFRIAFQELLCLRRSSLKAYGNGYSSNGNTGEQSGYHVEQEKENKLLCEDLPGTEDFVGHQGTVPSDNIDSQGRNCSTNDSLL

## COc1ccc2cc(CC(=O)O)ccc2c1
[1]
  IC50: Not Active
[2]; cho-k1
  IC50: Not Active
Substance-K receptor; cho
  IC50: Not Active
Melanocortin receptor 5
  IC50: Not Active
Interstitial collagenase
  IC50: Not Active
Cytochrome P450 1A2
  IC50: Not Active
  Ki: Not Active

## CC(C)NC[C@H](O)COc1cccc2[nH]ccc12
[2]; cho-k1
  IC50: Not Active
Substance-K receptor; cho
  IC50: Not Active
Melanocortin receptor 5
  IC50: Not Active
Interstitial collagenase
  IC50: Not Active

## c1ccc2c(c1)cc1ccc3cccc4ccc2c1c34
[1]
  IC50: Not Active
[2]; cho-k1
  IC50: Not Active
Substance-K receptor; cho
  IC50: Not Active
Melanocortin receptor 5
  IC50: Not Active
Interstitial collagenase
  IC50: Not Active

## CC=CC(=O)N(CC)c1ccccc1C
[1]
  IC50: Not Active
[2]; cho-k1
  IC50: Not Active
Substance-K receptor; cho
  IC50: Not Active
Melanocortin receptor 5
  IC50: Not Active
Interstitial collagenase
  IC50: Not Active
Cytochrome P450 1A2
  IC50: Not Active
  Ki: Not Active

## C=C1C(=O)O[C@@H]2C3O[C@]3(C)CC/C=C(\C)CC[C@@H]12 (stereo partly specified)
[1]
  IC50: Not Active
[2]; cho-k1
  IC50: Not Active
Substance-K receptor; cho
  IC50: Not Active
Melanocortin receptor 5
  IC50: Not Active
Interstitial collagenase
  IC50: Not Active
Cytochrome P450 1A2
  IC50: Not Active
  Ki: Not Active

## CC(/C=C1\SC(=S)N(CC(=O)O)C1=O)=C\c1ccccc1
[1]
  IC50: Not Active
[2]; cho-k1
  IC50: Not Active
Substance-K receptor; cho
  IC50: Not Active
Melanocortin receptor 5
  IC50: Not Active
Interstitial collagenase
  IC50: Not Active
Cytochrome P450 1A2
  IC50: Not Active
  Ki: Not Active

## CCCCCCCCCc1ccc(O)cc1 [4-NONYLPHENOL]
[1]
  IC50: Not Active
[2]; read-out: IC50
  IC50: 2570 nM
[2]
  Ki: 1350 nM
Substance-K receptor; read-out: IC50
  IC50: 4510 nM
Substance-K receptor
  Ki: 1510 nM
Melanocortin receptor 5
  IC50: Not Active
Interstitial collagenase
  IC50: Not Active
Cytochrome P450 1A2
  IC50: Not Active
  Ki: Not Active

## COc1ccc2c(c1)c(CC(=O)OCC(=O)O)c(C)n2C(=O)c1ccc(Cl)cc1 [ACEMETACIN]
[1]
  IC50: Not Active
[2]; cho-k1
  IC50: Not Active
Substance-K receptor; cho
  IC50: Not Active
Melanocortin receptor 5
  IC50: Not Active
Interstitial collagenase
  IC50: Not Active
Cytochrome P450 1A2
  IC50: Not Active
  Ki: Not Active

## CCCSc1ccc2nc(NC(=O)OC)[nH]c2c1 [ALBENDAZOLE]
[1]
  IC50: Not Active
[2]; cho-k1
  IC50: Not Active
Substance-K receptor; cho
  IC50: Not Active
Melanocortin receptor 5
  IC50: Not Active
Interstitial collagenase
  IC50: Not Active
Cytochrome P450 1A2
  IC50: Not Active
  Ki: Not Active

## Cc1[nH]cnc1CN1CCc2c(c3ccccc3n2C)C1=O [ALOSETRON]
[1]
  IC50: Not Active
[2]; cho-k1
  IC50: Not Active
Substance-K receptor; cho
  IC50: Not Active
Melanocortin receptor 5
  IC50: Not Active
Interstitial collagenase
  IC50: Not Active

## O=c1cc(-c2ccccc2)oc2c1ccc1ccccc12 [ALPHA-NAPHTHOFLAVONE]
[1]
  IC50: Not Active
[2]; cho-k1
  IC50: Not Active
Substance-K receptor; read-out: IC50
  IC50: 5850 nM
Substance-K receptor
  Ki: 1950 nM
Melanocortin receptor 5
  IC50: Not Active
Interstitial collagenase
  IC50: Not Active

## NCC[C@H](O)C(=O)N[C@@H]1C[C@H](N)[C@@H](O[C@H]2O[C@H](CN)[C@@H](O)[C@H](O)[C@H]2O)[C@H](O)[C@H]1O[C@H]1O[C@H](CO)[C@@H](O)[C@H](N)[C@H]1O [AMIKACIN]
[1]
  IC50: Not Active
[2]; cho-k1
  IC50: Not Active
Substance-K receptor; cho
  IC50: Not Active
Melanocortin receptor 5
  IC50: Not Active
Interstitial collagenase
  IC50: Not Active
Cytochrome P450 1A2
  IC50: Not Active
  Ki: Not Active

## CC1(C)S[C@@H]2[C@H](NC(=O)[C@H](N)c3ccc(O)cc3)C(=O)N2[C@H]1C(=O)O [AMOXICILLIN]
[1]
  IC50: Not Active
[2]; cho-k1
  IC50: Not Active
Substance-K receptor; cho
  IC50: Not Active
Melanocortin receptor 5
  IC50: Not Active
Interstitial collagenase
  IC50: Not Active

## CCOC(=O)OC(C)OC1=C(C(=O)Nc2ccccn2)N(C)S(=O)(=O)c2ccccc21 (stereo unspecified) [AMPIROXICAM]
[1]
  IC50: Not Active
[2]; cho-k1
  IC50: Not Active
Substance-K receptor; cho
  IC50: Not Active
Melanocortin receptor 5
  IC50: Not Active
Interstitial collagenase
  IC50: Not Active
Cytochrome P450 1A2
  IC50: Not Active
  Ki: Not Active

## N#C[C@H](O[C@@H]1O[C@H](CO[C@@H]2O[C@H](CO)[C@@H](O)[C@H](O)[C@H]2O)[C@@H](O)[C@H](O)[C@H]1O)c1ccccc1 [AMYGDALIN]
[1]
  IC50: Not Active
[2]; cho-k1
  IC50: Not Active
Substance-K receptor; cho
  IC50: Not Active
Melanocortin receptor 5
  IC50: Not Active
Interstitial collagenase
  Ki: Not Active
Cytochrome P450 1A2
  IC50: Not Active
  Ki: Not Active

## CCCCOC(=O)c1ccc(N)cc1 [BUTAMBEN]
[1]
  IC50: Not Active
[2]; cho-k1
  IC50: Not Active
Substance-K receptor; cho
  IC50: Not Active
Melanocortin receptor 5
  IC50: Not Active
Interstitial collagenase
  IC50: Not Active

## O=C(O)c1cn(C2CC2)c2cc(N3CCNCC3)c(F)cc2c1=O [CIPROFLOXACIN]
[1]
  IC50: Not Active
[2]; cho-k1
  IC50: Not Active
Substance-K receptor; cho
  IC50: Not Active
Melanocortin receptor 5
  IC50: Not Active
Interstitial collagenase
  IC50: Not Active

## CN(C)CCCC1(c2ccc(F)cc2)OCc2cc(C#N)ccc21 (stereo unspecified) [CITALOPRAM]
[1]
  IC50: Not Active
Substance-K receptor; cho
  IC50: Not Active
Melanocortin receptor 5
  IC50: Not Active
Interstitial collagenase
  IC50: Not Active
Cytochrome P450 1A2
  IC50: Not Active
  Ki: Not Active

## CN1C[C@H](C(=O)N[C@]2(C)O[C@@]3(O)[C@@H]4CCCN4C(=O)[C@H](Cc4ccccc4)N3C2=O)C=C2c3cccc4[nH]cc(c34)C[C@H]21 [ERGOTAMINE]
[2]; read-out: IC50
  IC50: 56 nM
[2]
  Ki: 29 nM
Substance-K receptor; cho
  IC50: Not Active
Melanocortin receptor 5
  IC50: Not Active
Interstitial collagenase
  IC50: Not Active
Cytochrome P450 1A2
  IC50: Not Active
  Ki: Not Active

## O=C1OCCN1/N=C/c1ccc([N+](=O)[O-])o1 [FURAZOLIDONE]
[1]
  IC50: Not Active
[2]; cho-k1
  IC50: Not Active
Substance-K receptor; cho
  IC50: Not Active
Melanocortin receptor 5
  IC50: Not Active
Interstitial collagenase
  IC50: Not Active

## NCC(=O)O [GLYCINE]
[1]
  IC50: Not Active
[2]; cho-k1
  IC50: Not Active
Substance-K receptor; cho
  IC50: Not Active
Melanocortin receptor 5
  IC50: Not Active
Interstitial collagenase
  IC50: Not Active

## NS(=O)(=O)c1cc2c(cc1Cl)NCNS2(=O)=O [HYDROCHLOROTHIAZIDE]
[1]
  IC50: Not Active
[2]; cho-k1
  IC50: Not Active
Substance-K receptor; cho
  IC50: Not Active
Melanocortin receptor 5
  IC50: Not Active
Interstitial collagenase
  IC50: Not Active

## O=P1(NCCCl)OCCCN1CCCl (stereo unspecified) [IFOSFAMIDE]
[1]
  IC50: Not Active
[2]; cho-k1
  IC50: Not Active
Substance-K receptor; cho
  IC50: Not Active
Melanocortin receptor 5
  IC50: Not Active
Interstitial collagenase
  IC50: Not Active

## CNCCC=C1c2ccccc2CCc2ccccc21 [NORTRIPTYLINE]
[1]
  IC50: Not Active
Substance-K receptor; cho
  IC50: Not Active
Melanocortin receptor 5
  IC50: Not Active
Interstitial collagenase
  IC50: Not Active
Cytochrome P450 1A2
  IC50: Not Active
  Ki: Not Active
